# pKd: −log10 of the molar value. Residues, ends and D or L forms follow the SMILES beside them. *: point of attachment. Biotin = O=C1N[C@H]2[C@H](CS[C@H]2CCCCC(=O)*)N1
# Target: T1, soluble ectodomain of sortilin-6his (Homo sapiens, UniProt Q99523, V650M)
# T1 construct: the soluble ectodomain of sortilin-6his is measured by microscale thermophoresis (MST)
# Experiment: MST binding to soluble ectodomain of sortilin-6his
# Conditions: Table 1; biotin-linker-peptide bifunctional compounds; MST; read-out: KD score, binding to sortilin (Kd)
row,pKd,SMILES
1,> 7.00,CC(C)C[C@H](NC(=O)[C@H](CC(C)C)NC(=O)[C@H](CCC(N)=O)NC(=O)[C@H](Cc1ccccc1)NC(=O)CNC(=O)CNC(=O)CNC(=O)CNC(=O)[C@H](CO)NC(=O)CNC(=O)CNC(=O)CCCC[C@@H]1SC[C@@H]2NC(=O)N[C@@H]21)C(=O)O [compound 143] (Biotin-GGSGGGGFQLL-OH)

# Same assay, conditions: Table 3; monofunctional peptides; MST; read-out: KD score, binding to sortilin (Kd)
row,SMILES,pKd
1,"CC(C)C[C@H](NC(=O)[C@H](CC(C)C)NC(=O)[C@H](CCC(N)=O)NC(=O)[C@@H](N)Cc1ccc(O)cc1)C(=O)O [compound 29, YQLL-OH] (H-YQLL-OH)",6.60 to 7.60
2,CC(C)C[C@H](NC(=O)[C@H](Cc1ccc(O)cc1)NC(=O)[C@H](CCC(N)=O)NC(=O)[C@@H](N)CCCNC(=N)N)C(=O)O [compound 39] (H-RQYL-OH),5.60 to 6.60
3,CC(C)C[C@H](NC(=O)[C@H](CC(C)C)NC(=O)[C@H](CCC(N)=O)NC(=O)[C@@H](N)Cc1c[nH]cn1)C(=O)O [compound 41] (H-HQLL-OH; N-terminus assumed),< 5.60
4,CC[C@H](C)[C@H](N)C(=O)N[C@@H](CCC(N)=O)C(=O)N[C@@H](CC(C)C)C(=O)N[C@@H](CC(C)C)C(=O)O [compound 42] (H-IQLL-OH; N-terminus assumed),5.60 to 6.60
5,CC(C)C[C@H](NC(=O)[C@H](Cc1ccc(O)cc1)NC(=O)[C@H](Cc1ccc(O)cc1)NC(=O)[C@@H](N)Cc1ccccc1)C(=O)O [compound 43] (H-FYYL-OH; N-terminus assumed),< 5.60
6,CC(C)C[C@H](NC(=O)[C@H](CCCNC(=N)N)NC(=O)[C@H](CCCNC(=N)N)NC(=O)[C@H](CCCCN)NC(=O)[C@H](CCCCN)NC(=O)[C@H](Cc1ccccc1)NC(=O)[C@H](CC(C)C)NC(=O)[C@@H](N)CCCNC(=N)N)C(=O)N[C@@H](CCCNC(=N)N)C(=O)N[C@@H](CO)C(=O)N1CCC[C@H]1C(=O)N[C@@H](CCCNC(=N)N)C(=O)N[C@H](C(=O)N[C@@H](CC(C)C)C(=O)N[C@@H](Cc1ccccc1)C(N)=O)C(C)C [compound 47],< 5.60
7,CC(C)C[C@H](N)C(=O)N[C@@H](Cc1ccc(O)cc1)C(=O)N[C@@H](CCC(=O)O)C(=O)N[C@@H](CC(N)=O)C(N)=O [compound 64] (H-LYEN-NH2; N-terminus assumed),< 5.60

# Other lines, results leading:
row,pKd,SMILES
1,6.60 to 7.60,"CC(C)C[C@H](NC(=O)[C@H](CC(C)C)NC(=O)[C@H](CCC(N)=O)NC(=O)[C@@H](N)CCCNC(=N)N)C(=O)O [compound 22, RQLL-OH] (H-RQLL-OH)"
2,6.60 to 7.60,"CC(C)C[C@H](NC(=O)[C@H](CC(C)C)NC(=O)[C@H](CCC(N)=O)NC(=O)[C@@H](N)Cc1ccccc1)C(=O)O [compound 23, FQLL-OH] (H-FQLL-OH)"
3,6.60 to 7.60,CC(C)C[C@H](NC(=O)[C@H](CC(C)C)NC(=O)[C@H](CCC(N)=O)NC(=O)[C@@H](N)CCCCN)C(=O)O [compound 24] (H-KQLL-OH)
4,6.60 to 7.60,CC(C)C[C@H](NC(=O)[C@H](CC(C)C)NC(=O)[C@H](CCC(N)=O)NC(=O)[C@@H]1CCCN1)C(=O)O [compound 25] (H-PQLL-OH)
5,6.60 to 7.60,CC[C@H](C)[C@H](NC(=O)[C@H](Cc1ccc(O)cc1)NC(=O)[C@@H]1CCCN1)C(=O)N[C@@H](CC(C)C)C(=O)O [compound 26] (H-PYIL-OH)
6,6.60 to 7.60,"CC(C)C[C@H](NC(=O)[C@H](CC(C)C)NC(=O)[C@H](Cc1ccc(O)cc1)NC(=O)[C@@H](N)CCCNC(=N)N)C(=O)O [compound 27, RYLL-OH] (H-RYLL-OH)"
7,6.60 to 7.60,"CC(C)C[C@H](NC(=O)[C@H](CC(C)C)NC(=O)[C@H](Cc1ccc(O)cc1)NC(=O)[C@@H](N)Cc1ccccc1)C(=O)O [compound 28, FYLL-OH] (H-FYLL-OH)"
8,5.60 to 6.60,CC[C@H](C)[C@H](NC(=O)[C@H](Cc1ccc(O)cc1)NC(=O)[C@@H](N)Cc1ccccc1)C(=O)N[C@@H](CC(C)C)C(=O)O [compound 31] (H-FYIL-OH)
9,5.60 to 6.60,CC[C@H](C)[C@H](NC(=O)[C@H](Cc1ccc(O)cc1)NC(=O)[C@@H](N)CCCNC(=N)N)C(=O)N[C@@H](CC(C)C)C(=O)O [compound 32] (H-RYIL-OH)
10,5.60 to 6.60,CC(C)C[C@H](NC(=O)[C@H](CC(C)C)NC(=O)[C@H](Cc1ccc(O)cc1)NC(=O)[C@@H]1CCCN1)C(=O)O [compound 33] (H-PYLL-OH)
11,6.60 to 7.60,CC(C)C[C@H](NC(=O)[C@H](Cc1ccc(O)cc1)NC(=O)[C@H](Cc1ccc(O)cc1)NC(=O)[C@@H](N)CCCNC(=N)N)C(=O)O [compound 36] (H-RYYL-OH)
12,5.60 to 6.60,CC(C)C[C@H](NC(=O)[C@H](Cc1ccccc1)NC(=O)[C@H](Cc1ccc(O)cc1)NC(=O)[C@@H](N)CCCNC(=N)N)C(=O)O [compound 37] (H-RYFL-OH)
13,5.60 to 6.60,CC(C)C[C@H](NC(=O)[C@H](Cc1ccccc1)NC(=O)[C@H](CCC(N)=O)NC(=O)[C@@H](N)CCCNC(=N)N)C(=O)O [compound 38] (H-RQFL-OH)
14,> 7.60,CC(C)C[C@H](NC(=O)[C@H](CC(C)C)NC(=O)[C@H](CCC(N)=O)NC(=O)[C@H](CCCNC(=N)N)NC(=O)[C@H](CC(C)C)NC(=O)[C@H](C)NC(=O)[C@@H]1CCCN1C(=O)[C@H](CC(=O)O)NC(=O)[C@H](CCCNC(=N)N)NC(=O)[C@H](CC(C)C)NC(=O)[C@@H]1CCCN1C(=O)[C@H](C)NC(=O)[C@H](CC(=O)O)NC(=O)[C@H](Cc1c[nH]c2ccccc12)NC(=O)[C@H](CCCNC(=N)N)NC(=O)[C@@H]1CCCN1C(=O)[C@H](C)NC(=O)[C@H](CCC(=O)O)NC(=O)[C@@H](N)CCCNC(=N)N)C(=O)O [compound 53]
15,6.60 to 7.60,CC[C@H](C)[C@H](NC(=O)[C@H](Cc1ccc(O)cc1)NC(=O)[C@@H]1CCCN1C(=O)[C@H](CCCNC(=N)N)NC(=O)[C@H](CCCNC(=N)N)NC(=O)[C@@H]1CCCN1C(=O)[C@H](CCCCN)NC(=O)[C@H](CC(N)=O)NC(=O)[C@H](CCC(=O)O)NC(=O)[C@H](Cc1ccc(O)cc1)NC(=O)[C@@H](N)CC(C)C)C(=O)N[C@@H](CC(C)C)C(=O)O [compound 56]

# Same assay, conditions: Table 4; small molecule bifunctional compounds; MST
row,"KD score, binding to sortilin (Kd)",SMILES
1,0,"Cc1cc(-c2ccc(C(=O)NCCCCCCCCCCCC(=O)NCC(=O)N3CCN(c4ncc(-c5ccc6c(n5)N(Cc5cccnc5C#N)C(C)(C)C6=O)cn4)C[C@H]3C)cc2)cc(NC(=O)c2ccc(C(F)(F)F)cc2C(=O)O)n1 [BF146, 2-[[4-[4-[[12-[[2-[(2R)-4-[5-[1-[(2-cyano-3-pyridyl)methyl]-2,2-dimethyl-3-oxo-pyrrolo[2,3-b]pyridin-6-yl]pyrimidin-2-yl]-2-methyl-piperazin-1-yl]-2-oxo-ethyl]amino]-12-oxo-dodecyl]carbamoyl]phenyl]-6-methyl-2-pyridyl]carbamoyl]-5-(trifluoromethyl)benzoic acid]"

# Same assay, conditions: Table 4; small molecule bifunctional compounds; MST; read-out: KD score, binding to sortilin (Kd)
row,pKd,SMILES
1,> 9.00,"C[C@@H]1CN(c2ncc(-c3ccc4c(n3)N(Cc3cccnc3C#N)C(C)(C)C4=O)cn2)CCN1C(=O)Cn1cc(COCCOCCOCC(=O)N2CCC(Oc3cccc(Oc4ccc(C(=O)N[C@@H](CCC(C)(C)C)C(=O)O)cn4)c3)CC2)nn1 [BF112, (2S)-2-[[6-[3-[[1-[2-[2-[2-[[1-[2-[(2R)-4-[5-[1-[(2-cyano-3-pyridyl)methyl]-2,2-dimethyl-3-oxo-pyrrolo[2,3-b]pyridin-6-yl]pyrimidin-2-yl]-2-methyl-piperazin-1-yl]-2-oxo-ethyl]triazol-4-yl]methoxy]ethoxy]ethoxy]acetyl]-4-piperidyl]oxy]phenoxy]pyridine-3-carbonyl]amino]-5,5-dimethyl-hexanoic acid]"
2,> 9.00,"C[C@@H]1CN(c2ncc(-c3ccc4c(n3)N(Cc3cccnc3C#N)C(C)(C)C4=O)cn2)CCN1C(=O)Cn1cc(COCCOCCN2CCN(CCOCCOc3cccc(Oc4ccc(C(=O)N[C@@H](CCC(C)(C)C)C(=O)O)cn4)c3)CC2)nn1 [BF113, (2S)-2-[[6-[3-[2-[2-[4-[2-[2-[[1-[2-[(2R)-4-[5-[1-[(2-cyano-3-pyridyl)methyl]-2,2-dimethyl-3-oxo-pyrrolo[2,3-b]pyridin-6-yl]pyrimidin-2-yl]-2-methyl-piperazin-1-yl]-2-oxo-ethyl]triazol-4-yl]methoxy]ethoxy]ethyl]piperazin-1-yl]ethoxy]ethoxy]phenoxy]pyridine-3-carbonyl]amino]-5,5-dimethyl-hexanoic acid]"
3,> 9.00,"C[C@@H]1CN(c2ncc(-c3ccc4c(n3)N(Cc3cccnc3C#N)C(C)(C)C4=O)cn2)CCN1C(=O)Cn1cc(COCCOCCOC2CN(CCOCCOc3cccc(Oc4ccc(C(=O)N[C@@H](CCC(C)(C)C)C(=O)O)cn4)c3)C2)nn1 [BF114, (2S)-2-[[6-[3-[2-[2-[3-[2-[2-[[1-[2-[(2R)-4-[5-[1-[(2-cyano-3-pyridyl)methyl]-2,2-dimethyl-3-oxo-pyrrolo[2,3-b]pyridin-6-yl]pyrimidin-2-yl]-2-methyl-piperazin-1-yl]-2-oxo-ethyl]triazol-4-yl]methoxy]ethoxy]ethoxy]azetidin-1-yl]ethoxy]ethoxy]phenoxy]pyridine-3-carbonyl]amino]-5,5-dimethyl-hexanoic acid]"
4,> 9.00,"CC(C)(C)CC[C@H](NC(=O)c1ccc(Oc2cccc(OCC(=O)NCCOCCOCCOCCNc3ncc(-c4ccc5c(n4)N(Cc4cccnc4C#N)C(C)(C)C5=O)cn3)c2)nc1)C(=O)O [BF137, (2S)-2-[[6-[3-[2-[2-[2-[2-[2-[[5-[1-[(2-cyano-3-pyridyl)methyl]-2,2-dimethyl-3-oxo-pyrrolo[2,3-b]pyridin-6-yl]pyrimidin-2-yl]amino]ethoxy]ethoxy]ethoxy]ethylamino]-2-oxo-ethoxy]phenoxy]pyridine-3-carbonyl]amino]-5,5-dimethyl-hexanoic acid]"
5,8.00 to 9.00,CC(C)(C)CC[C@H](NC(=O)c1ccc(Oc2cccc(OCC(=O)NCCOCCOCCOCCOc3ncc(-c4ccc5c(n4)N(Cc4cccnc4C#N)C(C)(C)C5=O)cn3)c2)nc1)C(=O)O [BF139]
6,8.00 to 9.00,"CC(C)(C)CC[C@H](NC(=O)c1ccc(Oc2cccc(OCC(=O)NCCOCCOCCOCCOCCOCCOc3ncc(-c4ccc5c(n4)N(Cc4cccnc4C#N)C(C)(C)C5=O)cn3)c2)nc1)C(=O)O [BF143, (S)-2-(6-(3-((20-((5-(1-((2-cyanopyridin-3-yl)methyl)-2,2-dimethyl-3-oxo-2,3-dihydro-1H-pyrrolo[2,3-b]pyridin-6-yl)pyrimidin-2-yl)oxy)-2-oxo-6,9, 12, 15, 18-pentaoxa-3-azaicosyl)oxy)phenoxy)nicotinamido)-5,5-dimethylhexanoic acid]"

# Source: US20250345446A1 (Draupnir Bio ApS, priority 2022, published 2025)
